From patent US9023847B2, “Azaheterocyclic compounds” (Merck Patent GmbH, priority 2009, dated 2015)

Biological target: T1, P70S6K (T412E mutant, Millipore) (Homo sapiens, UniProt P23443, T412E)
T1 construct: purchased Millipore
Test: p70S6K enzyme assay
Format: biochemical
Details: Table 1; 3 nM P70S6K, 24 μM ATP, 90 min at 25° C.; read-out: p70S6K inhibition (IC50)
In short: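 T412E-mutant P70S6K (3 nM) with 24 μM ATP and 1 μM FITC-AHA-AKRRRLSSLRA-OH S6-derived peptide in 100 mM Hepes pH 7.5, 5 mM MgCl2, 1 mM DTT, 0.015% Brij; 90 min at 25° C, EDTA stop. Phosphorylated product and substrate peptide separated and quantified by microfluidic capillary electrophoresis (Caliper LabChip 3000).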

T1 sequence (P23443 whole entry T412E): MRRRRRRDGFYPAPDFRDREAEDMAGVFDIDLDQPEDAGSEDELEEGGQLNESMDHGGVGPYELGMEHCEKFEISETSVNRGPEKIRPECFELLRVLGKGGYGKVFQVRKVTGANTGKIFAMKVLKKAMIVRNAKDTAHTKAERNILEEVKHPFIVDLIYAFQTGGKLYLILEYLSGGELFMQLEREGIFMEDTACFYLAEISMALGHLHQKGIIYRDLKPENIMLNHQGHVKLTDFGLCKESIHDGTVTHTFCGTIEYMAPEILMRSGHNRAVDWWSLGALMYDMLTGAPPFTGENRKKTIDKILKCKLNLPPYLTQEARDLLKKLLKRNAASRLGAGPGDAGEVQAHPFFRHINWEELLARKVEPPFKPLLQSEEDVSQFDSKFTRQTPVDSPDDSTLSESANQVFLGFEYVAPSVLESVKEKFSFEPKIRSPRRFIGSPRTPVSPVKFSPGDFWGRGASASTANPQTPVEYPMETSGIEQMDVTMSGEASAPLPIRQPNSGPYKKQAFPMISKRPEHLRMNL

Compared with `CC(C)NC(=O)c1ccccc1Nc1ccnc2[nH]ccc12` [Example 155, N-Isopropyl-2-(1H-pyrrolo[2,3-b]pyridin-4-ylamino)-benzamide], `CC(C)(C)OC(=O)N1CCC(NC(=O)c2sccc2Nc2ccnc3[nH]ccc23)C1` (stereo not drawn) [Example 156, 3-{[3-(1H-Pyrrolo[2,3-b]pyridin-4-ylamino)-thiophene-2-carbonyl]-amino}-pyrrolidine-1-carboxylic acid tert-butyl ester] is higher in IC50: 100 to 1000 nM for the first, 1000 to 10000 nM for the second. The first is the more potent here.

Same assay, conditions: class symbol; 3 nM P70S6K, 24 μM ATP; read-out: IC50 (p70S6K)

First: O=C(c1sccc1Nc1ccnc2[nH]ccc12)N1CCC(NCc2ccccc2)CC1 [Example 65, (4-Benzylamino-piperidin-1-yl)-[3-(1H-pyrrolo[2,3-b]pyridin-4-ylamino)-thiophen-2-yl]-methanone]
Second: O=C(CNC(=O)c1sccc1Nc1ccnc2[nH]ccc12)NCc1ccccc1 [Example 73, 3-(1H-Pyrrolo[2,3-b]pyridin-4-ylamino)-thiophene-2-carboxylic acid (benzylcarbamoyl-methyl)-amide]
The IC50 of the first is higher: 1000 to 10000 nM for the first, 100 to 1000 nM for the second.

`Cc1cccc(CNCCNC(=O)c2sccc2Nc2ccnc3[nH]ccc23)c1` [Example 56, 3-(1H-Pyrrolo[2,3-b]pyridin-4-ylamino)-thiophene-2-carboxylic acid [2-(3-methyl-benzylamino)-ethyl]-amide] and `O=C(NCCc1cccc(C(F)(F)F)c1)c1sccc1Nc1ccnc2[nH]ccc12` [Example 18, 3-(1H-Pyrrolo[2,3-b]pyridin-4-ylamino)-thiophene-2-carboxylic acid [2-(3-trifluoromethyl-phenyl)-ethyl]-amide] cannot be ordered by IC50: under 100 nM for the first, under 100 nM for the second.

First: O=C(NCCc1c[nH]cn1)c1sccc1Nc1ccnc2[nH]ccc12 [Example 15, 3-(1H-Pyrrolo[2,3-b]pyridin-4-ylamino)-thiophene-2-carboxylic acid [2-(1H-imidazol-4-yl)-ethyl]-amide]
Second: NS(=O)(=O)c1ccc(CCNC(=O)c2sccc2Nc2ccnc3[nH]ccc23)cc1 [Example 14, 3-(1H-Pyrrolo[2,3-b]pyridin-4-ylamino)-thiophene-2-carboxylic acid [2-(4-sulfamoyl-phenyl)-ethyl]-amide]
The IC50 of the first is higher: 100 to 1000 nM for the first, under 100 nM for the second. The second is the more potent here.

Compared with `O=C(NCc1ccccc1)c1sccc1Nc1ncnc2[nH]ccc12` [Example 172, 3-(7H-Pyrrolo[2,3-d]pyrimidin-4-ylamino)-thiophene-2-carboxylic acid benzylamide], `O=C(N[C@@H](CO)[C@@H](O)c1ccccc1)c1sccc1Nc1ccnc2[nH]ccc12` [Example 84, 3-(1H-Pyrrolo[2,3-b]pyridin-4-ylamino)-thiophene-2-carboxylic acid ((1S,2S)-2-hydroxy-1-hydroxymethyl-2-phenyl-ethyl)-amide] is higher in IC50: under 100 nM for the first, 1000 to 10000 nM for the second. The first is the more potent here.

First: O=C(NCC1CCCO1)c1sccc1Nc1ccnc2[nH]ccc12 (stereo not drawn) [Example 3, 3-(1H-Pyrrolo[2,3-b]pyridin-4-ylamino)-thiophene-2-carboxylic acid (tetrahydro-furan-2-ylmethyl)-amide]
Second: CC(C)C[C@@H](CO)NC(=O)c1ccsc1Nc1ccnc2[nH]ccc12 [Example 117, 2-(1H-Pyrrolo[2,3-b]pyridin-4-ylamino)-thiophene-3-carboxylic acid ((S)-1-hydroxymethyl-3-methyl-butyl)-amide]
The IC50 of the first is higher: 100 to 1000 nM for the first, under 100 nM for the second. The second is the more potent here.

Compared with `N#CC[C@@H](NC(=O)c1ccsc1Nc1ccnc2[nH]ccc12)c1ccccc1` [Example 139, 2-(1H-Pyrrolo[2,3-b]pyridin-4-ylamino)-thiophene-3-carboxylic acid ((R)-2-cyano-1-phenyl-ethyl)-amide], `CC(C)(C)OC(=O)N1CCCC(NC(=O)c2ccsc2Nc2ccnc3[nH]ccc23)C1` (stereo not drawn) [Example 104, 3-{[2-(1H-Pyrrolo[2,3-b]pyridin-4-ylamino)-thiophene-3-carbonyl]-amino}-piperidine-1-carboxylic acid tert-butyl ester] is higher in IC50: under 100 nM for the first, 100 to 1000 nM for the second.

Same assay, conditions: numeric bound printed under the example; read-out: IC50 (p70S6K)

With `O=C(NCCNCc1ccccc1)c1sc2ccccc2c1Nc1ccnc2[nH]ccc12` [Example 82, 3-(1H-Pyrrolo[2,3-b]pyridin-4-ylamino)-benzo[b]thiophene-2-carboxylic acid (2-benzylamino-ethyl)-amide] the IC50 was over 10000 nM.
